This note sets out measurements from EP0126944B1, “Use of 6-(Z) or 2-(Z) configurational 3,7,11-trimethyl-dodeca-2,6,10-trien-1-ols as bacteriostats in cosmetic products” (Dragoco Gerberding & Co. GmbH, priority 1983, dated 1984).

Experiment in all cases: Vertical diffusion test (impregnated filter paper embedded in agar)
What all share (assay type): cell-based

For assay [1], the system named is Staphylococcus epidermidis. The following applies: for Vertikaler Diffusionstest, Staphylococcus epidermidis 10^4 / Vertikaler Diffusionstest, Staphylococcus epidermidis 10^6 KBE/ml / Hemmung / antibakterielle Wirkung: 0,3 %; for Vertikaler Diffusionstest, Staphylococcus epidermidis 10^4 / Vertikaler Diffusionstest, Staphylococcus epidermidis 10^6 KBE/ml: 0,2 ml/ 15,9 cm^2; for Vertikaler Diffusionstest, Staphylococcus epidermidis 10^4: 10^4 KBE/ml; for Hemmung / antibakterielle Wirkung: Tabelle 1. The text has this: (§1) Die mikrobiologischen Prüfungen wurden mit den Bakterienarten Staphylococcus aureus, Corynebacterium species und Staphylococcus epidermidis durchgeführt. Es wurden jeweils Konzentrationen von 0,3 % der Verbindungen 1a, b, c, 2 gegen unterschiedliche Keimzahlen eingesetzt und 1. mit einer Aufschwemmung von 10^4 koloniebildenden Einheiten/ml (KBE/ml) und 2. mit 10^6 KBE/ml versehen. Die Durchführung der Untersuchung erfolgte in üblicher Weise, indem Filterpapierplättchen mit einer Fläche von 15,9 cm^2 mit je 0,2 ml der 0,3 % igen alkoholischen Konzentrationen beschickt wurden. Nach Trocknen der aufgebrachten Lösungen wurden die Filterpapierplättchen dann in den Agar von Petrischalen eingebettet, so daß die Oberfläche mit einer dünnen Agarschicht überschichtet werden konnte. Danach wurde die ganze Platte mit den Testbakterien in unterschiedlicher Keimkonzentration beimpft. (Tabelle 1)

The subject of assay [2] is Staphylococcus aureus SG 511. The following applies: for Vertikaler Diffusionstest, Staphylococcus aureus SG 511 10^4 / Vertikaler Diffusionstest, Staphylococcus aureus SG 511 10^6 KBE/ml / antibakterielle Wirkung: 0,3 %; for Vertikaler Diffusionstest, Staphylococcus aureus SG 511 10^4 / Vertikaler Diffusionstest, Staphylococcus aureus SG 511 10^6 KBE/ml: 0,2 ml/ 15,9 cm^2; for Vertikaler Diffusionstest, Staphylococcus aureus SG 511 10^4: 10^4 KBE/ml; for antibakterielle Wirkung: Tabelle 1.
Excerpt: as §1

The test system of another assay is Corynebacterium species. The following applies: 0,3 %; for Vertikaler Diffusionstest, Corynebacteriumt species 10^4 / Vertikaler Diffusionstest, Corynebacteriumt species 10^6 KBE/ml: 0,2 ml/ 15,9 cm^2; for Vertikaler Diffusionstest, Corynebacteriumt species 10^4: 10^4 KBE/ml; for antibakterielle Wirkung: Tabelle 1, Corynebacterium species.
Excerpt: as §1

With `CC(C)=CCC/C(C)=C/CC/C(C)=C\CO` [Substanz 1a], in assay [1], the “Vertikaler Diffusionstest, Staphylococcus epidermidis 10^4” value is 0 - 1 and the “Vertikaler Diffusionstest, Staphylococcus epidermidis 10^6 KBE/ml” value was 0 - 1. Moreover, in assay [1] (Staphylococcus epidermidis), the Hemmung entry was “fast totale Hemmung” and the “antibakterielle Wirkung” value is “deutliche antibakterielle Wirkung”. Also, in assay [2], the “Vertikaler Diffusionstest, Staphylococcus aureus SG 511 10^4” value is given as 0 and the “Vertikaler Diffusionstest, Staphylococcus aureus SG 511 10^6 KBE/ml” value is recorded as 0. The “antibakterielle Wirkung” value in assay [2] (Staphylococcus aureus) is given as “deutliche antibakterielle Wirkung”. In the assay on Corynebacterium species, the “Vertikaler Diffusionstest, Corynebacteriumt species 10^4” value is reported as 0; the “Vertikaler Diffusionstest, Corynebacteriumt species 10^6 KBE/ml” value turned out to be 0; the “antibakterielle Wirkung” value is reported as “deutliche antibakterielle Wirkung”.
With `CC(C)=CCC/C(C)=C\CC/C(C)=C/CO` [Substanz 1b], in assay [1], the “Vertikaler Diffusionstest, Staphylococcus epidermidis 10^4” value amounted to 0 and the “Vertikaler Diffusionstest, Staphylococcus epidermidis 10^6 KBE/ml” value is listed as 0 - 1. For the same molecule, in assay [1] (Staphylococcus epidermidis), the Hemmung entry was “fast totale Hemmung” and the “antibakterielle Wirkung” value was “deutliche antibakterielle Wirkung”. Besides, in assay [2], the “Vertikaler Diffusionstest, Staphylococcus aureus SG 511 10^4” value came out at 0 and the “Vertikaler Diffusionstest, Staphylococcus aureus SG 511 10^6 KBE/ml” value is on record as 0. Further, in assay [2] (Staphylococcus aureus), the “antibakterielle Wirkung” value is listed as “deutliche antibakterielle Wirkung”. For the same molecule, in the assay with Corynebacterium species, the “Vertikaler Diffusionstest, Corynebacteriumt species 10^4” value was found to be 0; the “Vertikaler Diffusionstest, Corynebacteriumt species 10^6 KBE/ml” value was determined as 0; the “antibakterielle Wirkung” value is reported as “deutliche antibakterielle Wirkung”.
In the case of `CC(C)=CCC/C(C)=C\CC/C(C)=C\CO` [Substanz 1c], in assay [1], the “Vertikaler Diffusionstest, Staphylococcus epidermidis 10^4” value turned out to be 0 and the “Vertikaler Diffusionstest, Staphylococcus epidermidis 10^6 KBE/ml” value is listed as 0 - 1. In assay [1] (Staphylococcus epidermidis), the Hemmung result was “fast totale Hemmung” and the “antibakterielle Wirkung” value is given as “deutliche antibakterielle Wirkung”. Besides, in assay [2], the “Vertikaler Diffusionstest, Staphylococcus aureus SG 511 10^4” value is listed as 0 and the “Vertikaler Diffusionstest, Staphylococcus aureus SG 511 10^6 KBE/ml” value was 0. The “antibakterielle Wirkung” value in assay [2] (Staphylococcus aureus) is recorded as “deutliche antibakterielle Wirkung”. In addition, in the assay on Corynebacterium species, the “Vertikaler Diffusionstest, Corynebacteriumt species 10^4” value turned out to be 0; the “Vertikaler Diffusionstest, Corynebacteriumt species 10^6 KBE/ml” value amounted to 0; the “antibakterielle Wirkung” value was “deutliche antibakterielle Wirkung”.
Take `CC(C)=CCCC(C)=CCCC(C)=CCO` [Substanz 2, Farnesol, reference compound]: in assay [1], the “Vertikaler Diffusionstest, Staphylococcus epidermidis 10^4” value is given as 1 - 2 and the “Vertikaler Diffusionstest, Staphylococcus epidermidis 10^6 KBE/ml” value is listed as 1 - 2. Besides, the Wirksamkeit result in assay [1] (compared with 1a, b, c, Staphylococcus epidermidis) is reported as “etwas geringerer Wirksamkeit”. Also, in assay [2], the “Vertikaler Diffusionstest, Staphylococcus aureus SG 511 10^4” value was 0 - 1 and the “Vertikaler Diffusionstest, Staphylococcus aureus SG 511 10^6 KBE/ml” value is given as 0 - 1. For the same molecule, in assay [2] (compared with 1a, b, c, Staphylococcus aureus), the Wirksamkeit entry was “etwas geringerer Wirksamkeit”. Further, in the assay with Corynebacterium species, the “Vertikaler Diffusionstest, Corynebacteriumt species 10^4” value is given as 0 and the “Vertikaler Diffusionstest, Corynebacteriumt species 10^6 KBE/ml” value was found to be 0.
